This assay addresses recombinant human Vps34 (Homo sapiens, UniProt Q8NEB9). The assay is described as follows: Vps34 KinaseGlo assay. Format: biochemical. Particulars: KinaseGlo luminescence ATP detection; PI/OG substrate; 1 μM ATP; room temperature; 8 concentrations, n=2. The method, then: It was then resuspended in 3% OctylGlucoside by vortexing and stored at 4° C. 5 μL of a mix of PI/OG with recombinant human Vps34 were added. Kinase reactions were started by addition of 5 μl of ATP-mix containing in a final volume 10 μL 10 mM TRIS-HCl pH 7.5, 3 mM MgCl2, 50 mM NaCl, 0.05% CHAPS, 1 mM DTT and 1 μM ATP, and occurred at room temperature. Reactions were stopped with 10 μl of KinaseGlo and plates were read 10 minutes later in a Synergy2 reader using an integration time of 0.1 seconds per well.
Sequence of recombinant human Vps34 (Q8NEB9 whole entry): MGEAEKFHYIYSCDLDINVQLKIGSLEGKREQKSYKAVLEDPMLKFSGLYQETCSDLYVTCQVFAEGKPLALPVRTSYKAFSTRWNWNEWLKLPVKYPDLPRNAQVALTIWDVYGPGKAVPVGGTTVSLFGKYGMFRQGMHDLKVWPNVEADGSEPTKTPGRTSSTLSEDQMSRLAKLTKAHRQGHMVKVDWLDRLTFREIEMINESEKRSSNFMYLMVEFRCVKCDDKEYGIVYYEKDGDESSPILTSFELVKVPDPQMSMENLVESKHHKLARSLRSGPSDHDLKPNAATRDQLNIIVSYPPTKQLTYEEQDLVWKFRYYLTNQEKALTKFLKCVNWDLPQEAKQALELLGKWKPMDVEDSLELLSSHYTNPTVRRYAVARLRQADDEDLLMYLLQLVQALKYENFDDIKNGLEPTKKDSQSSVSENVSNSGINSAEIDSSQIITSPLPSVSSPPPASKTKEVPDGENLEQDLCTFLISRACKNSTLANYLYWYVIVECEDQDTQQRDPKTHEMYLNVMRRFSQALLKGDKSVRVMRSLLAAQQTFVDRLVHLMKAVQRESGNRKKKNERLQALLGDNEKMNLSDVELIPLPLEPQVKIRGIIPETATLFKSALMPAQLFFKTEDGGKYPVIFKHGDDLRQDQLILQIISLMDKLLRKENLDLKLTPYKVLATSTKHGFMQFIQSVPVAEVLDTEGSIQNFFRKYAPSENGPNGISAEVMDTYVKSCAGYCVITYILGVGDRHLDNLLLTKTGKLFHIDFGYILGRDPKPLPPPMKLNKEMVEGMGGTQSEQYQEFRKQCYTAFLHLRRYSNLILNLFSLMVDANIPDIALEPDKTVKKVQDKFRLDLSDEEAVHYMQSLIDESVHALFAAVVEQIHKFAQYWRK
One may read the IC50 as the concentration that inhibits the measured activity by half. As for `CC(CO)Nc1ncc(-c2ccnc(Nc3ccncc3)n2)c(CC2CC2)n1` (centres unmarked) [Example 10o, 2-(4′-(cyclopropylmethyl)-2-(pyridin-4-ylamino)-4,5′-bipyrimidin-2′-ylamino)propan-1-ol], the concentration for half-maximal inhibition (IC50) is 31.5 nM.
For `CC(C)(O)CNc1ncc(-c2ccnc(Nc3ccc(Cl)cc3)n2)c(CC2CC2)n1` [Example 16e, 1-(2-(4-chlorophenylamino)-4′-(cyclopropylmethyl)-4,5′-bipyrimidin-2′-ylamino)-2-methylpropan-2-ol], the 50% inhibitory concentration (IC50) was determined as 105 nM.
Regarding `CC(C)(O)CNc1ncc(-c2ccnc(Nc3ccncc3)n2)c(CC2CC2)n1` [Example 10t, 1-(4′-(cyclopropylmethyl)-2-(pyridin-4-ylamino)-4,5′-bipyrimidin-2′-ylamino)-2-methylpropan-2-ol], the IC50 worked out at 15 nM.
Under `CC(=O)Nc1ccc(Nc2nccc(-c3cnc(N)nc3CC3CC3)n2)cc1` [Example 15n, N-(4-(2′-amino-4′-(cyclopropylmethyl)-4,5′-bipyrimidin-2-ylamino)phenyl)acetamide] stands 62 nM; under `CNc1ncc(-c2ccnc(NC3CCC(N)CC3)n2)c(CC2CC2)n1` (centres unmarked) [Example 14j, N^2-(4-aminocyclohexyl)-4′-(cyclopropylmethyl)-N^2′-methyl-4,5′-bipyrimidine-2,2′-diamine], 411 nM; under `CNc1ncc(-c2ccnc(Nc3cnc4ccccc4c3)n2)c(CC2CC2)n1` [Example 14d, 4′-(cyclopropylmethyl)-N^2′-methyl-N^2-(quinolin-3-yl)-4,5′-bipyrimidine-2,2′-diamine], 133 nM.
Regarding `CNc1ncc(-c2ccnc(Nc3ccccc3)n2)c(CC2CC2)n1` [Example 14b, 4′-(cyclopropylmethyl)-N^2′-methyl-N^2-phenyl-4,5′-bipyrimidine-2,2′-diamine], the IC50 amounted to 286 nM.
The value for `CN(C)c1cccc(Nc2nccc(-c3cnc(N)nc3CC3CC3)n2)c1` [Example 15y, 4′-(cyclopropylmethyl)-N^2-(3-(dimethylamino)phenyl)-4,5′-bipyrimidine-2,2′-diamine] was 231 nM; that for `COc1ncc(-c2ccnc(Nc3ccncc3)n2)c(CC2CC2)n1` [Example 10u, 4′-(cyclopropylmethyl)-2′-methoxy-N-(pyridin-4-yl)-4,5′-bipyrimidin-2-amine] was 90.5 nM; that for `CCC(C)Nc1ncc(-c2ccnc(Nc3ccncc3)n2)c(CC2CC2)n1` (centres unmarked) [Example 10s, N^2′-sec-butyl-4′-(cyclopropylmethyl)-N^2-(pyridin-4-yl)-4,5′-bipyrimidine-2,2′-diamine] was 51.5 nM.
With `c1ccc(CNc2ncc(-c3ccnc(Nc4ccncc4)n3)c(CC3CC3)n2)cc1` [Example 10c, N^2′-benzyl-4′-(cyclopropylmethyl)-N^2-(pyridin-4-yl)-4,5′-bipyrimidine-2,2′-diamine], the concentration for half-maximal inhibition (IC50) was determined as 75.5 nM.
In the case of `Nc1ncc(-c2ccnc(Nc3ccc4[nH]ccc4c3)n2)c(CC2CC2)n1` [Example 15l, 4′-(cyclopropylmethyl)-N^2-(1H-indol-5-yl)-4,5′-bipyrimidine-2,2′-diamine], the IC50 came out at 25 nM.
The value for `Cc1cc(Nc2nccc(-c3cnc(N)nc3CC3CC3)n2)on1` [Example 15h, 4′-Cyclopropylmethyl-N^2-(3-methyl-isoxazol-5-yl)-[4,5′]bipyrimidinyl-2,2′-diamine] was 48 nM.
Under `Nc1ncc(-c2ccnc(NCc3ccco3)n2)c(CC2CC2)n1` [Example 15k, 4′-(cyclopropylmethyl)-N^2-(furan-2-ylmethyl)-4,5′-bipyrimidine-2,2′-diamine] stands 781 nM.
In the case of `CC(C)(O)CNc1ncc(-c2ccnc(Nc3ccc(F)cc3)n2)c(CC2CC2)n1` [Example 16c, 1-(4′-(cyclopropylmethyl)-2-(4-fluorophenylamino)-4,5′-bipyrimidin-2′-ylamino)-2-methylpropan-2-ol], the concentration for half-maximal inhibition (IC50) turned out to be 150 nM.
Regarding `Nc1ncc(-c2ccnc(NCCc3c[nH]cn3)n2)c(CC2CC2)n1` [Example 15t, N^2-(2-(1H-imidazol-4-yl)ethyl)-4′-(cyclopropylmethyl)-4,5′-bipyrimidine-2,2′-diamine], the IC50 came to 187 nM.
Regarding `CNc1ncc(-c2ccnc(Nc3ccc(OC)cc3)n2)c(CC2CC2)n1` [Example 14m, 4′-(cyclopropylmethyl)-N^2-(4-methoxyphenyl)-N^2′-methyl-4,5′-bipyrimidine-2,2′-diamine], the IC50 worked out at 119 nM.
As for `Nc1ncc(-c2ccnc(Nc3ccncc3)n2)c(COCc2ccccc2)n1` [Example 13, 4′-Benzyloxymethyl-N^2-pyridin-4-yl-[4,5′]bipyrimidinyl-2,2′-diamine], the IC50 was 7 nM.
The value for `CNc1ncc(-c2ccnc(Nc3ccc(OC)nc3)n2)c(CC2CC2)n1` [Example 14a, 4′-Cyclopropylmethyl-N^2-(6-methoxy-pyridin-3-yl)-N^2′-methyl-[4,5′]bipyrimidinyl-2,2′-diamine] was 115 nM; that for `Nc1ccc(Nc2nccc(-c3cnc(N)nc3CC3CC3)n2)cc1` [Example 15u, N^2-(4-aminophenyl)-4′-(cyclopropylmethyl)-4,5′-bipyrimidine-2,2′-diamine] was 104 nM.
Under `CNc1ncc(-c2ccnc(NC3CCC3)n2)c(CC2CC2)n1` [Example 14f, N^2-cyclobutyl-4′-(cyclopropylmethyl)-N^2′-methyl-4,5′-bipyrimidine-2,2′-diamine] stands 722 nM.
Under `c1cc(Nc2nccc(-c3cnc(NC4CC4)nc3CC3CC3)n2)ccn1` [Example 12c, N^2′-cyclopropyl-4′-(cyclopropylmethyl)-N^2-(pyridin-4-yl)-4,5′-bipyrimidine-2,2′-diamine] stands 45.5 nM.
As for `C[C@@H](Nc1ncc(-c2ccnc(Nc3ccncc3)n2)c(CC2CC2)n1)c1ccccc1` [Example 10h, (R)-4′-(cyclopropylmethyl)-N^2′-(1-phenylethyl)-N^2-(pyridin-4-yl)-4,5′-bipyrimidine-2,2′-diamine], the IC50 stood at 258 nM.
The value for `c1cc(Nc2nccc(-c3cncnc3CC3CC3)n2)ccn1` [Example 10v, 4′-(cyclopropylmethyl)-N-(pyridin-4-yl)-4,5′-bipyrimidin-2-amine] was 214 nM; that for `Nc1ncc(-c2ccnc(Nc3ccc(F)cc3)n2)c(CC2CC2)n1` [Example 15j, 4′-(cyclopropylmethyl)-N^2-(4-fluorophenyl)-4,5′-bipyrimidine-2,2′-diamine] was 53 nM; that for `CSc1ncc(-c2ccnc(Nc3ccncc3)n2)c(CC2CC2)n1` [Example 11, 4′-(Cyclopropylmethyl)-2′-(methylsulfanyl)-N-pyridin-4-yl-4,5′-bipyrimidin-2-amine] was 106 nM.
With `CC(C)(O)CNc1ncc(-c2ccnc(Nc3ccc(C#N)cc3)n2)c(CC2CC2)n1` [Example 16b, 4-(4′-(cyclopropylmethyl)-2′-(2-hydroxy-2-methylpropylamino)-4,5′-bipyrimidin-2-ylamino)benzonitrile], the half-maximal inhibitory concentration (IC50) came out at 25 nM.
The value for `CCc1ncc(-c2ccnc(N[C@H]3CC[C@H](O)CC3)n2)c(CC2CC2)n1` [Example 6d, (1r,4r)-4-(4′-(cyclopropylmethyl)-2′-ethyl-4,5′-bipyrimidin-2-ylamino)cyclohexanol] was 728 nM; that for `O[C@H]1CC[C@H](Nc2nccc(-c3cncnc3CC3CC3)n2)CC1` [Example 6a, Trans-4-{[4′-(cyclopropylmethyl)-4,5′-bipyrimidin-2-yl]amino}cyclohexanol] was 1000 nM.
Under “(S)-1-[4′-Cyclopropylmethyl-2-(pyridin-4-ylamino)-[4,5]bipyrimidinyl-2′-ylamino]-propan-2-ol [Example 10k]” stands 276 nM; under `Nc1ncc(-c2ccnc(NCCN3CCOCC3)n2)c(CC2CC2)n1` [Example 15s, 4′-(cyclopropylmethyl)-N^2-(2-morpholinoethyl)-4,5′-bipyrimidine-2,2′-diamine], 1660 nM; under `CNc1ncc(-c2ccnc(Nc3ccncc3)n2)c(CC2CC2)n1` [Example 14c, 4′-(cyclopropylmethyl)-N^2′-methyl-N^2-(pyridin-4-yl)-4,5′-bipyrimidine-2,2′-diamine], 37 nM.
The value for `CNc1ncc(-c2ccnc(NC3CCOCC3)n2)c(CC2CC2)n1` [Example 14g, 4′-(cyclopropylmethyl)-N^2′-methyl-N^2-(tetrahydro-2H-pyran-4-yl)-4,5′-bipyrimidine-2,2′-diamine] was 398 nM; that for `CC(=O)Nc1ccc(Nc2nccc(-c3cnc(NCC(C)(C)O)nc3CC3CC3)n2)cc1` [Example 16f, N-(4-(4′-(cyclopropylmethyl)-2′-(2-hydroxy-2-methylpropylamino)-4,5′-bipyrimidin-2-ylamino)phenyl)acetamide] was 138 nM.
As for `CNc1ncc(-c2ccnc(Nc3cc(OC)cc(OC)c3)n2)c(CC2CC2)n1` [Example 14p, 4′-(cyclopropylmethyl)-N^2-(3,5-dimethoxyphenyl)-N^2′-methyl-4,5′-bipyrimidine-2,2′-diamine], the IC50 worked out at 5170 nM.
For `CC(C)CNc1ncc(-c2ccnc(Nc3ccncc3)n2)c(CC2CC2)n1` [Example 10d, 4′-(cyclopropylmethyl)-N^2′-isobutyl-N^2-(pyridin-4-yl)-4,5′-bipyrimidine-2,2′-diamine], the half-inhibitory concentration (IC50) turned out to be 72 nM.
The value for `Cc1cc2cc(Nc3nccc(-c4cnc(N)nc4CC4CC4)n3)ccc2[nH]1` [Example 15w, 4′-(cyclopropylmethyl)-N^2-(2-methyl-1H-indol-5-yl)-4,5′-bipyrimidine-2,2′-diamine] was 36 nM; that for `CNc1ncc(-c2ccnc(N[C@H]3CC[C@H](NC(=O)OC(C)(C)C)CC3)n2)c(CC2CC2)n1` [Example 14i, tert-butyl (1r,4r)-4-(4′-(cyclopropylmethyl)-2′-(methylamino)-4,5′-bipyrimidin-2-ylamino)cyclohexylcarbamate] was 348 nM.
